Read-outs that look alike come from different tables or passages of the source.
Experiments:
Type in all cases: biochemical
AKT = AKT (Homo sapiens, UniProt P31749); test: RBC HotSpot kinase assay (33P-ATP, P81 filter-binding), AKT; conditions: read-out: AKT IC50
Outline: (§1)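 Kinase in Hepes pH 7.5 buffer with Mg2+, EGTA, Brij35, BSA, vanadate, DTT and 1% DMSO, plus required cofactors and substrate, was preincubated 20 min at room temperature with compound. Reaction was started with 33P-ATP and run 2 h, then detected by P81 filter binding. IC50 (nM) came from 10-point singlet curves.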

LATS2 = target: T1, LATS2 (Homo sapiens, UniProt Q9NRM7); test: RBC HotSpot kinase assay (33P-ATP, P81 filter-binding), LATS2; conditions: read-out: LATS2 IC50
T1 sequence (Q9NRM7 1-1088): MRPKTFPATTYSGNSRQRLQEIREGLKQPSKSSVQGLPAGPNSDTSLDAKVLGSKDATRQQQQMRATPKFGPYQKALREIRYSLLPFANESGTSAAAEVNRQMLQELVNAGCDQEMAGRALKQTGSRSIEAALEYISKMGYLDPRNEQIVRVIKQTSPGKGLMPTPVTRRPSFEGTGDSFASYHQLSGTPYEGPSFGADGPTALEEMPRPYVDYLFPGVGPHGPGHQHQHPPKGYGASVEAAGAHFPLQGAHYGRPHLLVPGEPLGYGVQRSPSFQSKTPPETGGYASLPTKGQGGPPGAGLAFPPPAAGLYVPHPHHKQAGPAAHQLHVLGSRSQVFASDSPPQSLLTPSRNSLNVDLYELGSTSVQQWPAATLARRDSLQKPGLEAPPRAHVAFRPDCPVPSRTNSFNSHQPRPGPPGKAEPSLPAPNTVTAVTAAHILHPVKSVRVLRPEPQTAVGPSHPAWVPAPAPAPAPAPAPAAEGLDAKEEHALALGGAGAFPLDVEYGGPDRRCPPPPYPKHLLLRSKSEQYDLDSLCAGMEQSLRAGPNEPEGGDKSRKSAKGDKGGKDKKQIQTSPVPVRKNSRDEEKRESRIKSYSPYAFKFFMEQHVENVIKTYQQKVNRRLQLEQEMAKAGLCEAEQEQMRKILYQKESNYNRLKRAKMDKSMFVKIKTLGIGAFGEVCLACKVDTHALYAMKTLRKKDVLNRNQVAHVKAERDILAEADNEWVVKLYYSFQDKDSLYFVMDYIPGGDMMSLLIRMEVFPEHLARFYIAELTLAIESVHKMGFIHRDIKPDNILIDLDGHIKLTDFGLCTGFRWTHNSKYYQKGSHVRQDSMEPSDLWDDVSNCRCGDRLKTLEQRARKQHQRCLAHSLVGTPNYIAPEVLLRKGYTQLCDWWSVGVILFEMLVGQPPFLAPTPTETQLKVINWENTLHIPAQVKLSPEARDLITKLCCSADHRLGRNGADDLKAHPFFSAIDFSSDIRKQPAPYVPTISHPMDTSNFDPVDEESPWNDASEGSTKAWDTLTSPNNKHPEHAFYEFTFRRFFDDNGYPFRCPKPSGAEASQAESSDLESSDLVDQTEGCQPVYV
Outline: as §1

LATS1 = target: T2, LATS1 (Homo sapiens, UniProt O95835); test: RBC HotSpot kinase assay (33P-ATP, P81 filter-binding), LATS1; conditions: read-out: LATS1 IC50
T2 sequence (O95835 1-1130): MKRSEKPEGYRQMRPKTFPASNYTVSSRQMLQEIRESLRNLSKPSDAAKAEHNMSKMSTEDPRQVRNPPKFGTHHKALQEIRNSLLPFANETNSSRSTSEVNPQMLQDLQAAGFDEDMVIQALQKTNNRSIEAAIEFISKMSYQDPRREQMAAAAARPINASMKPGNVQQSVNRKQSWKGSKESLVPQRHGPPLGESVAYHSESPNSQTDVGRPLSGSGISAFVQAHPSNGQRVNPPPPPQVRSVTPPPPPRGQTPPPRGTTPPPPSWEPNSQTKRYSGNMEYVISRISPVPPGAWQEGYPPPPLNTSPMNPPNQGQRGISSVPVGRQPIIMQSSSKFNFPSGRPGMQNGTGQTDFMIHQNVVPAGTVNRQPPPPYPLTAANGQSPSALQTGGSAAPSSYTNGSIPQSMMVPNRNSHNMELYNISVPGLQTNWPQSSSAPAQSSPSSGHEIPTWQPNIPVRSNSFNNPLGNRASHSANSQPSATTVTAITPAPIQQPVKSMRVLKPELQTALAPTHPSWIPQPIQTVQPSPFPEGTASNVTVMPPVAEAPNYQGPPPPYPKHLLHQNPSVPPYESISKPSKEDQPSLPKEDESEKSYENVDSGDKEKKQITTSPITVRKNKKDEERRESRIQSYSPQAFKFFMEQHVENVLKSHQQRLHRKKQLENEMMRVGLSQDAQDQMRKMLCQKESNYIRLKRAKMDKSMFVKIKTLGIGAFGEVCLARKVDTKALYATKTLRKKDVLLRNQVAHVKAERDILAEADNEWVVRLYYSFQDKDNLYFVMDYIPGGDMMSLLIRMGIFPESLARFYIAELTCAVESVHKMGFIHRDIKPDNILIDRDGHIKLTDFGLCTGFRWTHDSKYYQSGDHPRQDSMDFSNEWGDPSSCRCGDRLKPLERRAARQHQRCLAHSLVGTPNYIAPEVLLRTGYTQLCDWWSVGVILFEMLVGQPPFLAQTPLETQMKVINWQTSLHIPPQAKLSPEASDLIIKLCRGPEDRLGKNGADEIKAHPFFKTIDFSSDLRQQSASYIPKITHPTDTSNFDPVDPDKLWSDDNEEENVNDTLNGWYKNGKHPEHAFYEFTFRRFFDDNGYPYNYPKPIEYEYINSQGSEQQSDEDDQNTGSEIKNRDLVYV
Outline: as §1

[1] = Table 28, biochemical kinase assay
[2] = Table 32, biochemical kinase assay

AKT, sequence (P31749 whole entry): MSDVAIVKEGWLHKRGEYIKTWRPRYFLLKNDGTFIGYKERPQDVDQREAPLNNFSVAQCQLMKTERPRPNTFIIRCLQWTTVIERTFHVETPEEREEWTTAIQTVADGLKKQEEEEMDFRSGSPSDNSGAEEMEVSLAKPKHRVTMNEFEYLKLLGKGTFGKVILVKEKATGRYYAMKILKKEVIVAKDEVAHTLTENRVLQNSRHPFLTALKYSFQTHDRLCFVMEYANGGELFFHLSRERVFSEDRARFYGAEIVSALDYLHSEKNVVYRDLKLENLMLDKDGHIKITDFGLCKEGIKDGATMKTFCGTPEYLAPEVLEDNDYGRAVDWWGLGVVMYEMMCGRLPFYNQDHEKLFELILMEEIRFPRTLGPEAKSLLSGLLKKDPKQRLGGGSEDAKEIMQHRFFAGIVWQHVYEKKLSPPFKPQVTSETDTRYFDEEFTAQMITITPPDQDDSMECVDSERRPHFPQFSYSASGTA

SMILES	IC50 (AKT; [1])	IC50 (LATS2; [1])	IC50 (LATS1; [1])	IC50 (AKT; [2])	IC50 (LATS2; [2])	IC50 (LATS1; [2])
NCc1ccc(-c2ccnc3[nH]ccc23)cc1F [Compound 270, (2-fluoro-4-(1H-pyrrolo[2,3-b]pyridin-4-yl)phenyl) methanamine]	874 nM	34 nM	28 nM			
O=C(CO)NCC(O)(c1ccc(Cl)cc1)c1ccc(-c2ccnc3[nH]cc(F)c23)cc1 (stereo not drawn) [Compound 1016, N-(2-(4-chlorophenyl)-2-(4-(3-fluoro-1H-pyrrolo[2,3-b]pyridin-4-yl)phenyl)-2-hydroxyethyl)-2-hydroxyacetamide]				7.4 nM	4 nM	7 nM
CC(C)N1C[C@@H](C)[C@](O)(c2ccc(-c3ccnc4[nH]cc(F)c34)cc2Cl)[C@@H](C)C1 [Compound 6, (3S,4s,5R)-4-(2-chloro-4-(3-fluoro-1H-pyrrolo[2,3-b]pyridin-4-yl)phenyl)-1-isopropyl-3,5-dimethylpiperidin-4-ol]	90.9 nM	1.4 nM	1.3 nM			
CN1CCC(O)(c2ccc(-c3ccnc4[nH]cc(F)c34)cc2)CC1 [Compound 131, 4-(4-(3-fluoro-1H-pyrrolo[2,3-b]pyridin-4-yl)phenyl)-1-methylpiperidin-4-ol]	1070 nM	25 nM	28 nM			
CNCC(=O)N1C[C@@H](C)C(O)(c2c(F)cc(-c3ccnc4[nH]cc(F)c34)cc2F)[C@@H](C)C1 (stereo partly drawn) [Compound 83, 1-((3S,5R)-4-(2,6-difluoro-4-(3-fluoro-1H-pyrrolo[2,3-b]pyridin-4-yl)phenyl)-4-hydroxy-3,5-dimethylpiperidin-1-yl)-2-(methylamino) ethan-1-one]	570 nM	21.3 nM	25 nM			
Cc1cc(-c2ccnc3[nH]cc(F)c23)cc(F)c1[C@@]1(O)[C@H](C)CNC[C@@H]1C [Compound 16, (3S,4s,5R)-4-(2-fluoro-4-(3-fluoro-1H-pyrrolo[2,3-b]pyridin-4-yl)-6-methylphenyl)-3,5-dimethylpiperidin-4-ol]	201 nM	10 nM	7.1 nM			
Cc1cc(-c2ccc(CN)cc2)c2cc[nH]c2n1 [Compound 256, (4-(6-methyl-1H-pyrrolo[2,3-b]pyridin-4-yl)phenyl) methanamine]	> 10000 nM	4260 nM	9000 nM			
c1cc(-c2ccc(C3CCNCC3)cn2)c2cc[nH]c2n1 [Compound 175, 4-(5-(piperidin-4-yl)pyridin-2-yl)-1H-pyrrolo[2,3-b]pyridine]	7000 nM	142 nM	56 nM			
CC1CN(C)CC(C)C1(O)c1ccc(-c2ccnc3[nH]cc(Br)c23)cc1Cl (stereo not drawn) [Compound 125, 4-(4-(3-bromo-1H-pyrrolo[2,3-b]pyridin-4-yl)-2-chlorophenyl)-1,3,5-trimethylpiperidin-4-ol]	108 nM	7 nM	14.1 nM			
CN1CC(O)(c2ccc(-c3ccnc4[nH]cc(F)c34)cc2Cl)C1 [Compound 137, 3-(2-chloro-4-(3-fluoro-1H-pyrrolo[2,3-b]pyridin-4-yl)phenyl)-1-methylazetidin-3-ol]	1180 nM	350 nM	108 nM			
Fc1ccc(CNCc2ccc(-c3ccnc4[nH]ccc34)cc2)cc1 [Compound 279, N-(4-(1H-pyrrolo[2,3-b]pyridin-4-yl)benzyl)-1-(4-fluorophenyl) methanamine]	1080 nM	29.3 nM	9.8 nM			
COCCNc1cc(-c2ccnc3[nH]ccc23)ccc1CN [Compound 231, 2-(aminomethyl)-N-(2-methoxyethyl)-5-(1H-pyrrolo[2,3-b]pyridin-4-yl)aniline]	437 nM	144 nM	24 nM			
O=C(NCC(O)(c1ccc(Cl)cc1)c1ccc(-c2ccnc3[nH]ccc23)cc1)[C@H]1CCCN1 (stereo partly drawn) [Compound 1024, (2R)-N-(2-(4-(1H-pyrrolo[2,3-b]pyridin-4-yl)phenyl)-2-(4-chlorophenyl)-2-hydroxyethyl)pyrrolidine-2-carboxamide]				5.6 nM	2.4 nM	3.7 nM
Cc1cc(-c2ccnc3[nH]cc(F)c23)cc(F)c1[C@@]1(O)[C@H](C)CN(C(=O)CN(C)C)C[C@@H]1C [Compound 71, 2-(dimethylamino)-1-((3S,4s,5R)-4-(2-fluoro-4-(3-fluoro-1H-pyrrolo[2,3-b]pyridin-4-yl)-6-methylphenyl)-4-hydroxy-3,5-dimethylpiperid-1-yl)ethan-1-one]	939 nM	3.7 nM	11.3 nM			
O=C1NCc2ccc(-c3ccnc4[nH]ccc34)cc21 [Compound 259, 6-(1H-pyrrolo[2,3-b]pyridin-4-yl)isoindolin-1-one]	> 10000 nM	253 nM	110 nM			
COC(=O)c1c[nH]c2nccc(-c3ccc(CN)c(-c4ccccc4)c3)c12 [Compound 214, methyl 4-(6-(aminomethyl)-[1,1′-biphenyl]-3-yl)-1H-pyrrolo[2,3-b]pyridine-3-carboxylate]	986 nM	24 nM	11 nM			
CNCC(=O)NCC(O)(c1ccc(Cl)cc1)c1ccc(-c2ccnc3[nH]ccc23)cc1 (stereo not drawn) [Compound 1027, N-(2-(4-(1H-pyrrolo[2,3-b]pyridin-4-yl)phenyl)-2-(4-chlorophenyl)-2-hydroxyethyl)-2-(methylamino)acetamide]				1.3 nM	3 nM	4.1 nM
O=S1(=O)CCC(N2CC3(C2)CC(O)(c2c(F)cc(-c4ccnc5[nH]cc(F)c45)cc2F)C3)CC1 [Compound 140, 4-(6-(2,6-difluoro-4-(3-fluoro-1H-pyrrolo[2,3-b]pyridin-4-yl)phenyl)-6-hydroxy-2-azaspiro[3.3]heptan-2-yl)tetrahydro-2H-thiopyran 1,1-dioxide]	1580 nM	120 nM	56.8 nM			
O=C([C@@H]1CCCN1)N1CCC(O)(c2ccc(-c3ccnc4[nH]cc(F)c34)cc2)CC1 [Compound 143, (S)-3-fluoro-4-(4-(4-hydroxy-1-prolylpiperidin-4-yl)phenyl)-1H-pyrrolo[2,3-b]pyridine]	1460 nM	12 nM	26 nM			
OC1(c2ccc(-c3ccnc4[nH]cc(F)c34)cc2Cl)CNC1 [Compound 105, 3-(2-chloro-4-(3-fluoro-1H-pyrrolo[2,3-b]pyridin-4-yl)phenyl)azetidin-3-ol]	828 nM	14 nM	16 nM			

— patent US20250361230A1, “LATS Inhibitors and Uses Thereof” (The USA, as Represented by the Secretary, Dept. of Heath …, priority 2022, published 2025)
